Data on eight compounds can be found in PubChem BioAssay (NCI).

Some test systems named below: A498 renal; MOLT-4 leukemia; SW-620 colon; MDA-MB-435; SF-295 CNS; TK-10 renal; MCF7 breast; HL-60(TB) leukemia; CAKI-1 renal; HCC-2998 colon.
What all share (assay): NCI tumour cell line growth inhibition, 48 h

“And” between values parts separate entries of the source, which are not always exact repeats. Equal values may be shown once.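 Where inhibition never reached the appropriate level, the endpoint shown equals the highest concentration tested. Otherwise, values were interpolated linearly from a five-concentration, 48-hour dose response in 96-well plates. GI50 is the concentration that inhibits growth by half. TGI denotes the concentration required for complete inhibition of growth.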

`COc1cc(C[C@H]2c3cc(OC)c(OC)cc3CCN2C)c(Oc2cc3c(cc2OC)-c2c(OC)c(OC)cc4c2[C@H](C3)N(C)CC4)cc1OC`: the TGI in the test on A498 renal was 25.1 µM and 21.2 µM; in the test on MOLT-4 leukemia, 20.4 µM and 12.2 µM; in the test on SW-620 colon, 22.6 µM and 32.5 µM; in the test on MDA-MB-435, 12.5 µM; in the test with SF-295 CNS, 21 µM and 30.7 µM; in the test on TK-10 renal, 12.9 µM and 29.2 µM. The TGI is 27.8 µM in the test with MCF7 breast; 13.9 µM and 19.4 µM in the test with HL-60(TB) leukemia; 23.9 µM and 42.6 µM in the test on CAKI-1 renal; 15.1 µM and 14.4 µM with HCC-2998 colon. Moreover, the GI50 with MOLT-4 leukemia was 4.06 µM; with SW-620 colon it was 13.3 µM; in the test on SF-295 CNS it was 16.5 µM; in the test with TK-10 renal it was 15.7 µM; with HL-60(TB) leukemia, 5.71 µM; in the test on CAKI-1 renal it was 16.1 µM. Also, the GI50 in the test with HCC-2998 colon is 4.9 µM.
As to `COC(=O)c1nc(-c2ccccc2)oc1S(=O)(=O)Cc1ccccc1`, the GI50 in the test with A498 renal is 15.9 µM; in the test with MOLT-4 leukemia, 2.11 µM; with SW-620 colon, 2.05 µM; in the test on MDA-MB-435 it was 11.1 µM; with SF-295 CNS it was 16.5 µM; in the test with TK-10 renal, 1.74 µM. Further, the GI50 was 2.72 µM in the test on MCF7 breast, 2.3 µM in the test with HL-60(TB) leukemia, 1.84 µM with CAKI-1 renal and 19 µM with HCC-2998 colon. For the same compound, the TGI in the test with A498 renal was determined as 29.7 µM; with MOLT-4 leukemia it was 5.57 µM; with SW-620 colon, 4.14 µM; with MDA-MB-435, 23.6 µM; in the test with SF-295 CNS, 36.3 µM; in the test on TK-10 renal, 3.19 µM. The TGI in the test on MCF7 breast amounted to 11.1 µM; in the test with HL-60(TB) leukemia, 6.22 µM; in the test with CAKI-1 renal it was 3.42 µM; in the test on HCC-2998 colon, 36.3 µM.
For the compound `Nc1c(C(=O)c2cccc(-c3ccncc3)c2)cnn1-c1ccc(F)cc1F`, the GI50 in the test with A498 renal is 4.65 µM; with MOLT-4 leukemia it was 8.39 µM; in the test on SW-620 colon, 3.12 µM; in the test on MDA-MB-435, 0.684 µM; in the test with SF-295 CNS it was 8.36 µM; in the test with TK-10 renal, above 15 µM. Besides, the GI50 with MCF7 breast was 3.08 µM; with HL-60(TB) leukemia, 5.57 µM; in the test with CAKI-1 renal, 8.1 µM; with HCC-2998 colon, above 21.3 µM. Also, the TGI was above 25 µM in the test on A498 renal; above 25 µM in the test on MOLT-4 leukemia; above 25 µM in the test with SW-620 colon; 3.56 µM in the test on MDA-MB-435; above 25 µM with SF-295 CNS; above 25 µM in the test with TK-10 renal. The TGI with MCF7 breast, with HL-60(TB) leukemia, in the test with CAKI-1 renal and with HCC-2998 colon was above 25 µM throughout.
For the compound `CN(C)CCN1C(=O)c2ccccc2N(C)c2ccccc21`, the GI50 with A498 renal, with MOLT-4 leukemia, in the test with SW-620 colon, with MDA-MB-435, with SF-295 CNS and with TK-10 renal was above 100 µM each time. Further, the GI50 in the test with MCF7 breast, in the test with HL-60(TB) leukemia, with CAKI-1 renal and in the test on HCC-2998 colon was above 100 µM in each case. In addition, the TGI with A498 renal, in the test with MOLT-4 leukemia, in the test with SW-620 colon, in the test with MDA-MB-435, in the test on SF-295 CNS and with TK-10 renal was above 100 µM throughout. For the same compound, the TGI in the test with MCF7 breast, with HL-60(TB) leukemia, with CAKI-1 renal and with HCC-2998 colon was above 100 µM throughout.
Turning to `Cc1cc2c(cc1C)N(C(=O)CCl)CC(=O)N2`, the GI50 was 3.5 µM in the test with A498 renal; 2.41 µM in the test with MOLT-4 leukemia; 2.19 µM in the test on SW-620 colon; 2.67 µM with MDA-MB-435; 13.6 µM in the test with SF-295 CNS; 2.11 µM in the test with TK-10 renal. The GI50 in the test with MCF7 breast was 2.45 µM; with HL-60(TB) leukemia, 2.69 µM; in the test with CAKI-1 renal it was 1.84 µM; in the test with HCC-2998 colon, 2.88 µM. For the same compound, the TGI in the test on A498 renal turned out to be 18.2 µM; in the test with MOLT-4 leukemia, 7.01 µM; in the test on SW-620 colon it was 5.05 µM; in the test with MDA-MB-435 it was 10.2 µM; in the test on SF-295 CNS, 29.6 µM; in the test on TK-10 renal it was 3.59 µM. Besides, the TGI in the test with MCF7 breast stood at 10.9 µM; with HL-60(TB) leukemia it was 5.74 µM; with CAKI-1 renal, 3.52 µM; in the test with HCC-2998 colon it was 8.91 µM.
Consider `C=C(C)C(=O)Nc1ccc(NC(C)C)cc1`, for which the GI50 in the test on A498 renal, with MOLT-4 leukemia, with SW-620 colon, in the test on MDA-MB-435, with SF-295 CNS and with TK-10 renal was above 100 µM each time. The GI50 in the test on MCF7 breast, with HL-60(TB) leukemia, in the test with CAKI-1 renal and in the test with HCC-2998 colon was above 100 µM in each case. The TGI in the test with A498 renal, with MOLT-4 leukemia, in the test with SW-620 colon, in the test on MDA-MB-435, with SF-295 CNS and in the test with TK-10 renal was above 100 µM in each case. The TGI in the test with MCF7 breast, in the test with HL-60(TB) leukemia, in the test on CAKI-1 renal and in the test with HCC-2998 colon was above 100 µM in each case.
Consider `COc1cc2c(cc1C)NC(=O)/C2=C/c1ccccn1`, for which the GI50 in the test on A498 renal is 3.61 µM; in the test with MOLT-4 leukemia it was 4.28 µM; in the test with SW-620 colon it was 6.91 µM; with MDA-MB-435, 3.77 µM; in the test with SF-295 CNS, 3.46 µM; in the test with MCF7 breast it was 3.27 µM. For the same compound, the values for the GI50 in the test on HL-60(TB) leukemia and in the test on CAKI-1 renal were 5.35 µM and 2.72 µM, respectively. For the same compound, the TGI was 8.25 µM in the test with A498 renal; above 100 µM in the test on MOLT-4 leukemia; above 100 µM in the test with SW-620 colon; above 100 µM with MDA-MB-435; 13.3 µM in the test with SF-295 CNS; above 100 µM in the test on MCF7 breast. In addition, the TGI was above 100 µM in the test with HL-60(TB) leukemia and 9.59 µM in the test on CAKI-1 renal.
On to `COc1ccc(-c2c[nH]c(C(=O)O)c2-c2cc(OC)c(OC)c(OC)c2)cc1`, for which the GI50 in the test with A498 renal is 1.56 µM; in the test with MOLT-4 leukemia, 4.95 µM; in the test on SW-620 colon it was 3.94 µM; in the test with MDA-MB-435 it was 1.6 µM; in the test with SF-295 CNS, 4.19 µM; with TK-10 renal it was above 100 µM. The GI50 with MCF7 breast was 3.89 µM; in the test with HL-60(TB) leukemia, 3.06 µM; in the test on CAKI-1 renal, 3.66 µM; with HCC-2998 colon, 7.53 µM. Moreover, the TGI in the test with A498 renal is 6.67 µM; in the test on MOLT-4 leukemia, above 100 µM; with SW-620 colon it was above 100 µM; with MDA-MB-435 it was 4.19 µM; in the test with SF-295 CNS, above 100 µM; in the test with TK-10 renal it was above 100 µM. The TGI is above 100 µM in the test on MCF7 breast, 9.59 µM with HL-60(TB) leukemia, above 100 µM with CAKI-1 renal and above 100 µM with HCC-2998 colon.
